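Following 48 hours of exposure in 96-well plates, responses at five concentrations were used to interpolate endpoints linearly. GI50 is the concentration that inhibits growth by half.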 Calls of active or inactive are those of the source. Cut-off read from the data, not from the text of the source: active = GI50 up to about 1.1 µM and inactive = higher.
How the values were obtained:
Experiment in all cases: growth of human tumour cells (NCI), 48 h
LOX IMVI = system: LOX IMVI
RXF 393 = system: RXF 393
SNB-19 = system: SNB-19
SW-620 = system: SW-620
NCI-H226 = system: NCI-H226
PC-3 = system: PC-3
HT-29 = system: HT-29
MCF7 = system: MCF7
A498 = system: A498
MDA-N = system: MDA-N
SK-MEL-2 = system: SK-MEL-2
MDA-MB-435 = system: MDA-MB-435
OVCAR-3 = system: OVCAR-3
SF-295 = system: SF-295
OVCAR-8 = system: OVCAR-8
U-251 = system: U-251
T47D = system: T47D

Measured: GI50

CSc1nc2c(c(=O)[nH]1)N=C(c1ccc(Cl)cc1)CC(c1ccccc1)N2 (stereo unspecified)
inactive: LOX IMVI 18.7 µM | RXF 393 17.2 µM | SNB-19 15.2 µM | SW-620 18.8 µM | NCI-H226 24.8 µM | PC-3 19 µM | HT-29 17.3 µM | MCF7 19.1 µM | A498 30.2 µM | MDA-N 17.6 µM | SK-MEL-2 14.1 µM | MDA-MB-435 17.9 µM | OVCAR-3 15.2 µM | SF-295 18.6 µM | OVCAR-8 16.5 µM | U-251 17.7 µM

CC1(C)OC2[C@@H](CO[C@@]3([C@@H](O)CCO)OC(C)(C)O[C@@H]23)O1 (stereo partly specified)
inactive: LOX IMVI > 100 µM | RXF 393 > 100 µM | SNB-19 > 100 µM | SW-620 > 100 µM | NCI-H226 > 100 µM | PC-3 > 100 µM | HT-29 > 100 µM | MCF7 > 100 µM | MDA-N > 100 µM | T47D > 100 µM | SK-MEL-2 > 100 µM | MDA-MB-435 > 100 µM | OVCAR-3 > 100 µM | SF-295 > 100 µM | OVCAR-8 > 100 µM | U-251 > 100 µM

N#CC(CCN1CCC(Nc2ccccc2)(c2nnnn2C2CCCCC2)CC1)(c1ccccc1)c1ccccc1
inactive: LOX IMVI > 100 µM | RXF 393 > 100 µM | SNB-19 > 100 µM | SW-620 > 100 µM | NCI-H226 > 100 µM | PC-3 > 100 µM | HT-29 > 100 µM | MCF7 58.2 µM | A498 > 100 µM | MDA-N > 100 µM | SK-MEL-2 > 100 µM | MDA-MB-435 > 100 µM | OVCAR-3 > 100 µM | SF-295 > 100 µM | OVCAR-8 > 100 µM | U-251 > 100 µM

CC12CCC3[C@@H](CC3(C)C)C(O)(CCC1=O)C2 (stereo partly specified)
inactive: LOX IMVI > 100 µM | SW-620 > 100 µM | NCI-H226 > 100 µM | PC-3 > 100 µM | HT-29 > 100 µM | MCF7 > 100 µM | MDA-N > 100 µM | T47D > 100 µM | SK-MEL-2 > 100 µM | MDA-MB-435 > 100 µM | OVCAR-3 > 100 µM | SF-295 > 100 µM | OVCAR-8 > 100 µM | U-251 > 100 µM

C/C(Nc1ccc(F)cc1)=C1/CCOC1=O
inactive: LOX IMVI 2.25 µM | RXF 393 4.73 µM | SNB-19 > 100 µM | SW-620 > 100 µM | NCI-H226 91.6 µM | PC-3 46.5 µM | HT-29 > 100 µM | A498 > 100 µM | T47D 63.2 µM | MDA-MB-435 2.92 µM | OVCAR-3 > 100 µM | SF-295 16.5 µM | OVCAR-8 17.3 µM | U-251 > 100 µM

O=C(OCCN=c1c2ccccc2ccc2ccccc12)c1ccc([N+](=O)[O-])cc1
inactive: LOX IMVI > 100 µM | RXF 393 > 100 µM | SNB-19 > 100 µM | SW-620 > 100 µM | NCI-H226 > 100 µM | PC-3 > 100 µM | HT-29 > 100 µM | MCF7 > 100 µM | MDA-N > 100 µM | T47D > 100 µM | SK-MEL-2 > 100 µM | MDA-MB-435 > 100 µM | OVCAR-3 > 100 µM | SF-295 > 100 µM | OVCAR-8 > 100 µM | U-251 > 100 µM

O=C(Oc1cncc(Cl)c1)c1cc2ccccc2sc1=O
inactive: LOX IMVI 37.3 µM | RXF 393 23 µM | SNB-19 92.5 µM | SW-620 35.2 µM | NCI-H226 22.4 µM | PC-3 33 µM | HT-29 86.1 µM | MCF7 39.4 µM | MDA-N 78.2 µM | T47D > 100 µM | SK-MEL-2 24.7 µM | MDA-MB-435 29.5 µM | OVCAR-3 60.5 µM | SF-295 96.2 µM | OVCAR-8 > 100 µM | U-251 49.8 µM

Cn1c2ccccc2c(=O)c2cccc(C(=O)NCC(=O)O)c21
inactive: LOX IMVI 71.3 µM | SNB-19 > 100 µM | SW-620 > 100 µM | NCI-H226 85.9 µM | PC-3 > 100 µM | HT-29 > 100 µM | MCF7 > 100 µM | MDA-N > 100 µM | T47D > 100 µM | SK-MEL-2 > 100 µM | MDA-MB-435 > 100 µM | OVCAR-3 > 100 µM | SF-295 > 100 µM | OVCAR-8 > 100 µM | U-251 > 100 µM

COc1cc2c(cc1C)NC(=O)/C2=C\c1ccncc1
inactive: RXF 393 3.76 µM | SNB-19 5.2 µM | SW-620 4.49 µM | PC-3 6.55 µM | HT-29 4.92 µM | MCF7 3.03 µM | T47D 3.81 µM | SK-MEL-2 2.97 µM | MDA-MB-435 4.14 µM | OVCAR-3 3.9 µM | SF-295 4.99 µM | OVCAR-8 2.52 µM | U-251 4.39 µM
